Test results as given in patent publication US11166461B2, “Methods of controlling or preventing infestation of soybean plants by phytopathogenic microorganisms” (SYNGENTA PARTICIPATIONS AG, priority 2017, dated 2021).

Legend:
Fusarium virguliforme [1] = assay: Seed treatments on soybean cv. Toliman infected with Fusarium virguliforme (growth chamber pot test); type: in vivo; conditions: 29 DAS; for % Disease severity: SDS index normalized to 100 for untreated infected control; for % Infected plants: soybean cv. Toliman
Description: Effect of Different Seed Treatments on Soybean Cv. Toliman Infected with Fusarium virguliforme:
Fusarium virguliforme/Soybean
5×5 soybean seeds cv. Toliman were sown into plastic pots. A mixture of 50% vol. sand and 50% vol. sterilized field soil was used as substrate. A layer of F. virguliforme infected millet seeds was placed below the soybean seeds. The test was kept in a growth chamber at 25° C. with 14 h artificial light; plants were irrigated up to field capacity. For the last five cultivation days, plants were kept at 18° C. The number of infected plants was counted 29 Days After Sowing (DAS).
Disease assessment was done visually 29 DAS, by classifying the plants according to a disease severity scale for SDS modified from Scandiani et al. (2011)* and J. Bond using classes from 0 to 4. The number of plants in each class were assessed. This allows calculating an “SDS Index” by multiplying the number of plants in each class with the disease severity (0, 1, 2, 3 or 4) and adding the products for all classes. SDS Index=n1×0+n2×1+n3×2+n4×3+n5×4. The SDS index is normalized to give an index of 100 for the untreated, infected control (UTCINF) and by calculating the normalized index for all treatments relative to the UTCINF. Shoot dry weight and shoot size was determined 29 DAS. • *Scandiani M., Ruberti D., Giorda L., Pioli R., Luque A., Bottai B., Ivancovich J., Aoki T., & O'Donnell K.: Comparison of inoculation methods for characterizing relative aggressiveness of two soybean sudden-death syndrome pathogens, Fusarium virguliforme and F. tucumaniae. Tropical Plant Pathology, vol. 36, 3, 133-140, 2011 Effect of Different Seed Treatments in the Field Against Sudden Death Syndrome (SDS) Caused by Fusarium virguliforme

Fusarium virguliforme [2] = assay: Seed treatments in the field against Sudden Death Syndrome (SDS) caused by Fusarium virguliforme, soybean field trial Clinton, Ill.; type: in vivo; conditions: seed treatment 0.15 mg ai/seed plus base treatment; for % efficacy based on disease incidence / % disease incidence: 107 days after planting; for % efficacy based on disease incidence: 100 − (100/(untreated/treated)); for % disease incidence: infected plants per plot; for Yield (bushel/acre) / % yield increase: 150 days after planting; for Yield (bushel/acre): full plot harvest; for % yield increase: versus untreated
Description: Disease assessment was done visually 29 DAS, by classifying the plants according to a disease severity scale for SDS modified from […] et al. (2011)* and J. Bond using classes from 0 to 4. The number of plants in each class were assessed. […] SDS Index=n1×0+n2×1+n3×2+n4×3+n5×4. The SDS index is normalized to give an index of 100 for the untreated, infected control ([…]) and by calculating the normalized index for all treatments relative to the […]. Shoot dry weight and shoot size was determined 29 […]., Ruberti D., Giorda L., Pioli R., Luque […]., Aoki T., & O'Donnell K.: Comparison of inoculation methods for characterizing relative aggressiveness of two soybean sudden-death syndrome pathogens, Fusarium virguliforme and F. tucumaniae. Tropical Plant Pathology, vol. 36, 3, 133-140, 2011 Effect of Different Seed Treatments in the Field Against Sudden Death Syndrome (SDS) Caused by Fusarium virguliforme A soybean field trial was carried out in Clinton, Ill., USA. This site had historically SDS occurrence reported. […] The disease occurred end of August and an assessment on disease incidence (counting of infected plants) was done Sep. 15, 2017. The yield of the grain data has been taken at the end of the season. [table] [table] [table]

| Compound | Shoot dry weight (Fusarium virguliforme [1]; seed treatment 10 g ai/100 kg) | Shoot length in mm (Fusarium virguliforme [1]; seed treatment 10 g ai/100 kg) | % Disease severity (Fusarium virguliforme [1]; seed treatment 10 g ai/100 kg) | % Infected plants (Fusarium virguliforme [1]; seed treatment 10 g ai/100 kg) | Shoot dry weight (Fusarium virguliforme [1]; seed treatment 20 g ai/100 kg) | Shoot length in mm (Fusarium virguliforme [1]; seed treatment 20 g ai/100 kg) | % Disease severity (Fusarium virguliforme [1]; seed treatment 20 g ai/100 kg) | % Infected plants (Fusarium virguliforme [1]; seed treatment 20 g ai/100 kg) | yield increase over the untreated check (Fusarium virguliforme [2]) | % efficacy based on disease incidence (Fusarium virguliforme [2]) | % disease incidence (Fusarium virguliforme [2]) | Yield (bushel/acre) (Fusarium virguliforme [2]) | % yield increase (Fusarium virguliforme [2]) | yield increase (in words) (Fusarium virguliforme [2]) |
| --- | --- | --- | --- | --- | --- | --- | --- | --- | --- | --- | --- | --- | --- | --- |
| O=C(NC1CCC1c1ccc(F)cc1Cl)c1cccnc1C(F)(F)F (stereo not shown) [Compound 7] | 4.09 g | 565 mm | 1% | 4% | 4.01 g | 530 mm | 0% | 0% |  |  |  |  |  |  |
| O=C(NC1CCC1c1ccc(F)cc1Cl)c1ncccc1C(F)(F)F (stereo not shown) [Compound 4] | 3.89 g | 541 mm | 5% | 8% | 3.77 g | 526 mm | 5% | 8% |  |  |  |  |  |  |
| O=C(NC1CCC1c1ccc(Cl)cc1Cl)c1cccnc1C(F)(F)F (stereo not shown) [Compound 1] | 3.57 g | 505 mm | 17% | 28% | 4.16 g | 587 mm | 0% | 0% | 8.11 bushels per acre | 79.72% | 12.17 B % | 79.15 A bushel/acre | 11.42% |  |
| O=C(NCCc1ncc(C(F)(F)F)cc1Cl)c1ccccc1C(F)(F)F [Fluopyram, reference compound] |  |  |  |  |  |  |  |  |  | 58.33% | 25.00 B % | 68.38 A bushel/acre | −3.74% | did not increase the yield |
